Values of other authors, collected in article PMC8136953 (Veterinary Medicine and Science, 2020).

Parameters: method as in Park et al., 2006
Details: ref Park et al., 2006; cited from earlier work

For `CS(=O)(=O)c1ccc([C@@H](O)[C@H](N)CF)cc1` [FLO amine, florfenicol amine], the Antibacterial activity is given as “virtually lacks antibacterial activity”.
